{"source": "patent US8748410B2", "about": "“Methods of treating aneurysm” (Wisconsin Alumni Research Foundation, priority 2010, dated 2014)", "key": {"[1]": {"system": "calcium chloride induced AAA (CaCl2 AAA)", "assay": "calcium chloride induced AAA in mouse, aneurysm formation", "assay_type": "in vivo", "conditions": "mice, 1.25 mg/kg i.v., after 7 days", "text": "FIG. 2 illustrates the effect of OLCs inhibition on mouse AAA. Representative pictures of CaCl2 AAA with intravenous (“i.v.”) saline or bisphosphonate injection. Fold increase of the maximum size 7 days after the treatment was shown. n=3, P<0.05. Initially, the inventors identified robust calcification in human AAA samples. The inventors have also identified the existence of OLCs in the medial layer of aneurismal aorta, which were barely detected in age matched aortic tissues from autopsy and stenotic disease both by tartrate-resistant acid phosphatase (“TRAP”) staining, a conventional staining for osteoclast, and immunohistochemistry for osteoclast marker, TRAP (see FIG. 1). The inventors also have identified calcification and OLCs in experimental calcium chloride induced AAA (CaCl2 AAA) in mouse. […] (see FIG. 2) The dose of pamidronate was equivalent to FDA approved dose of pamidronate for osteolytic bone lesions (90 mg/body)."}, "[2]": {"system": "pre-existing (induced) AAAs", "assay": "pre-existing (induced) AAAs in mice, delayed treatment", "assay_type": "in vivo", "conditions": "weekly injection started 7 days after aneurysm induction, over 5 weeks vs. saline control", "protocol": "In addition, the inventors have extended their studies to cover the other major subclass of bisphosphonates (i.e., non-nitrogenous bisphosphonates) by studying the effect of etidronate (7.5 mg/kg i.v.) on aneurysm formation over 7 days (see FIG. 3B). The dose of etidronate was equivalent to FDA approved dose for Paget's disease (5-10 mg/kg). […] The bisphosphonate treatment corresponding to the data in FIG. 3A was started 1 week post surgery. The bisphosphonate treatments resulting in the data shown in FIGS. 4 (pamidronate) and 5 (etidronate) differed from the previous treatment in that they included weekly bisphosphonate administration immediately after surgery through 6 weeks post surgery."}}}
{"compound": "NCCC(O)(P(=O)(O)O)P(=O)(O)O", "note": "[pamidronate]", "values": [{"measurement": "inhibition of aneurysm formation", "setting": "[1]", "value": "apparently complete inhibition of aneurysm formation"}, {"measurement": "further growth of the aneurysm", "setting": "[2]", "value": "immediately halted further growth of the aneurysm"}]}
